test system: hyperglycemic male KK mice; assay: Action in depressing blood glucose (Method 1); format: in vivo; conditions: Mus musculus, po, 72 h, compound admixed with powder feed at 0.01% (ca. 10 mg/kg/day) for three days, plasma glucose vs control group, read-out: Rate of hypoglycemic activity (%) (blood glucose depression rate)
Experimental: Action in Depressing Blood Glucose (Method 1)
Each compound, admixed with powder feed F-2 (Funabashi Farm) was administered to hyperglycemic male KK mice each having a body weight of 40 g or more at a rate of 0.01% (ca. 10 mg/kg/day) for three days. Meanwhile, mice of a control group were fed with the powder feed only. Then, a blood sample was collected from the caudal vein of each mouse under no anesthesia and centrifuged. The blood glucose in the plasma thus obtained was determined using Glucoloader F (Product of A & T Co., Ltd.).
The blood glucose depression rate were estimated from the following equation:
Blood glucose depression rate (%)=[(Blood glucose in Control group−Blood glucose in administered group)/Blood glucose in Control group]×100

Row | SMILES | inhibition in vivo at 10 mg/kg/day
1 | CC(C)c1ccc(OC(Cc2ccc(OCCNC(=O)c3ccc(OCC(F)(F)C(F)F)nc3)cc2)C(=O)O)cc1 (stereo not shown) [Example 103, Sodium 3-[4-[2-[2-(2,2,3,3-tetrafluoropropoxy)pyridine-5-carbonylamino]ethoxy]phenyl]-2-(4-isopropylphenoxy)propionate] | 48%
2 | CC(C)c1ccc(O[C@@H](Cc2ccc(OCCNC(=O)c3ccc(-c4ccccn4)cc3)cc2)C(=O)O)cc1 [Example 104, (S)-2-(4-Isopropylphenoxy)-3-[4-[2-(4-pyridine-2-ylbenzoylamino)ethoxy]phenyl]propionic acid] | 73%
3 | CC(C)c1ccc(OC(Cc2ccc(OCCNC(=O)c3ccc(-c4ccc(C(F)(F)F)cn4)cc3)cc2)C(=O)O)cc1 (stereo not shown) [Example 107, 2-(4-isopropylphenoxy)-3-[4-[2-[4-(3-trifluoromethylpyridine-6-yl)benzoylamino]ethoxy]phenyl]propionic acid] | 38%
4 | CC(C)c1ccc(OC(Cc2ccc(OCCNC(=O)c3ccc(-c4ccc([N+](=O)[O-])cn4)cc3)cc2)C(=O)O)cc1 (stereo not shown) [Example 109, 2-(4-Isopropylphenoxy)-3-[4-[2-[4-(3-nitropyridine-6-yl)benzoylamino]ethoxy]phenyl]propionic acid] | 38%
5 | COc1ccc(-c2ccc(C(=O)NCCOc3ccc(CC(Oc4ccc(C(C)C)cc4)C(=O)O)cc3)cc2)nc1 (stereo not shown) [Example 111, 2-(4-Isopropylphenoxy)-3-[4-[2-[4-(3-methoxypyridine-6-yl)-benzoylamino]ethoxy]phenyl]propionic acid] | 70%
6 | CC(C)c1ccc(OC(Cc2ccc(OCCNC(=O)c3ccc(-c4ccc(N(C)C)cn4)cc3)cc2)C(=O)O)cc1 (stereo not shown) [Example 113, 3-[4-[2-[4-(3-Dimethylaminopyridine-6-yl)benzoylamino]ethoxy]-phenyl]-2-(4-isopropylphenoxy)propionic acid] | 64%
7 | Cc1ccc(OC(Cc2ccc(OCCNC(=O)c3ccc(-c4ccccn4)cc3)cc2)C(=O)O)cc1 (stereo not shown) [Example 115, 2-(4-Methylphenoxy)-3-[4-[2-(4-pyridine-2-ylbenzoylamino)ethoxy]phenyl]propionic acid] | 66%
8 | CC(C)(C)c1ccc(OC(Cc2ccc(OCCNC(=O)c3ccc(-c4ccccn4)cc3)cc2)C(=O)O)cc1 (stereo not shown) [Example 117, 2-(4-t-Butylphenoxy)-3-[4-[2-(4-pyridine-2-ylbenzoylamino)ethoxy]phenyl]propionic acid] | 70%
9 | O=C(NCCOc1ccc(CC(Oc2ccc(F)cc2)C(=O)O)cc1)c1ccc(-c2ccccn2)cc1 (stereo not shown) [Example 119, 2-(4-Fluorophenoxy)-3-[4-[2-(4-pyridine-2-ylbenzoylamino)ethoxy]phenyl]propionic acid] | 49%
10 | O=C(NCCOc1ccc(CC(Oc2ccc(Cl)cc2)C(=O)O)cc1)c1ccc(-c2ccccn2)cc1 (stereo not shown) [Example 121, 2-(4-Chlorophenoxy)-3-[4-[2-(4-pyridine-2-ylbenzoylamino)ethoxy]phenyl]propionic acid] | 60%
11 | O=C(NCCOc1ccc(CC(Oc2ccc(C(F)(F)F)cc2)C(=O)O)cc1)c1ccc(-c2ccccn2)cc1 (stereo not shown) [Example 123, 3-[4-[2-(4-Pyridine-2-ylbenzoylamino)ethoxy]phenyl]-2-(4-trifluoromethylphenoxy)propionic acid] | 43%
12 | COc1ccc(OC(Cc2ccc(OCCNC(=O)c3ccc(-c4ccccn4)cc3)cc2)C(=O)O)cc1 (stereo not shown) [Example 125, 2-(4-Methoxyphenoxy)-3-[4-[2-(4-pyridine-2-ylbenzoylamino)ethoxy]phenyl]propionic acid] | 54%
13 | O=C(NCCOc1ccc(CC(Oc2ccc(OC(F)(F)F)cc2)C(=O)O)cc1)c1ccc(-c2ccccn2)cc1 (stereo not shown) [Example 127, 3-[4-[2-(4-Pyridine-2-ylbenzoylamino)ethoxy]phenyl]-2-(4-trifluoromethoxyphenoxy)propionic acid] | 56%
14 | O=C(NCCOc1ccc(CC(Oc2cccc(F)c2)C(=O)O)cc1)c1ccc(-c2ccccn2)cc1 (stereo not shown) [Example 137, 2-(3-Fluorophenoxy)-3-[4-[2-(4-pyridine-2-ylbenzoylamino)ethoxy]phenyl]propionic acid] | 49%
15 | O=C(NCCOc1ccc(CC(Oc2cc(F)cc(F)c2)C(=O)O)cc1)c1ccc(-c2ccccn2)cc1 (stereo not shown) [Example 139, 2-(3,5-Difluorophenoxy)-3-[4-[2-(4-pyridine-2-ylbenzoylamino)ethoxy]phenyl]propionic acid] | 23%
16 | O=C(NCCOc1ccc(CC(Oc2ccc(F)c(F)c2)C(=O)O)cc1)c1ccc(-c2ccccn2)cc1 (stereo not shown) [Example 141, 2-(3,4-Difluorophenoxy)-3-[4-[2-(4-pyridine-2-ylbenzoylamino)ethoxy]phenyl]propionic acid] | 27%
17 | O=C(NCCOc1ccc(CC(Oc2cc(F)c(F)c(F)c2)C(=O)O)cc1)c1ccc(-c2ccccn2)cc1 (stereo not shown) [Example 143, 2-(3,4,5-Trifluorophenoxy)-3-[4-[2-(4-pyridine-2-ylbenzoylamino)ethoxy]phenyl]propionic acid] | 43%
18 | COC(=O)C(Cc1ccc(OCCNC(=O)c2ccc(-c3ccccn3)cc2)cc1)Sc1ccccc1 (stereo not shown) [Example 152, Methyl 2-phenylthio-3-[4-[2-(4-pyridine-2-ylbenzoylamino)ethoxy]phenyl]propionate] | 58%

same assay, conditions: compound admixed with powder feed at 0.01% (ca. 10 mg/kg/day) for three days, plasma glucose vs control group

Row | SMILES | Rate of hypoglycemic activity (%) (blood glucose depression rate)
19 | O=C(NCCOc1ccc(CC(Oc2c(F)c(F)c(F)c(F)c2F)C(=O)O)cc1)c1ccc(-c2ccccn2)cc1 (stereo not shown) [Example 145, 2-Pentafluorophenoxy-3-[4-[2-(4-pyridine-2-ylbenzoylamino)ethoxy]phenyl]propionic acid] | 28%

Source: patent US6528525B1, “Amidocarboxylic acid derivatives” (Sankyo Company, Limited, priority 1998, dated 2003)
